Data: patent US10849906B2, “Use of Akt2 in diagnosis and treatment of tumor” (priority 2015, dated 2020)

Tests used:
Assay type in all cases: cell-based, human
CCRF-CEM cells = assay: Apoptosis by Annexin V-FITC PI double staining (flow cytometry), CCRF-CEM; settings: compared to dexamethasone alone; FIG. 2A: Akt inhibitor 1 μM, dexamethasone 1 μM, LY294002 30 μM; FIG. 2G, 2J, 2K
Description: (§1) The control group was not added with any reagents. All experiments were performed in triplicate.
(§2) Apoptosis was detected by Annexin V-FITC PI double staining method (flow cytometry kit (FITC, PI double staining), Sangon Biotech (Shanghai) Co., Ltd.)), and the collected cells were washed once with phosphate buffered saline (PBS) (135 mM NaCl, 2.7 mM KCl, 1.5 mM KH2PO4 and 8 mM K2HPO4, pH 7.2); the 4× binding buffer was diluted to a 1× binding buffer with deionized water, then the cells were resuspended with 195 ul of the 1× binding buffer at a cell density of 2-5×10^5/ml; 5 μl of Annexin V-FITC was added to the 195 μl of the cell resuspension and mixed, and incubated in dark at room temperature for 10 minutes; the cells were washed once with 200 μl of the 1× binding buffer, and then resuspended in 190 μl of the 1× binding buffer; 10 μl of propidium iodide (20 μg/ml) was added. A flow cytometry device (Beckman company) was used for detection, and the rate of apoptosis was analyzed using Summit software.
(§3) The cells were cultured in RPMI 1640 complete medium (Gibco company) containing 10% fetal bovine serum (FBS, Gibco company) in an incubator (Thermo company) at 5% CO2 and 37° C. until reaching logarithmic growth phase, then different concentrations of inhibitors and/or dexamethasone/ethanol/DMSO were added to the culture medium, followed by further culturing (for addition of dexamethasone/ethanol/DMSO, for 48 hours, and for addition of inhibitor, for 24 hours), and apoptosis was detected by Annexin V-FITC PI double staining and proteins were detected by Western blot, as described in Example 1.
(§4) As described in Example 3, the cells were cultured in RPMI 1640 complete medium containing 10% fetal bovine serum under 5% CO2 and 37° C. until reaching logarithmic growth phase, and then dexamethasone and different concentrations of Akt inhibitor were added to the culture medium, followed by further culture (for addition of dexamethasone/DMSO, for 48 hours, and for addition of the inhibitor, for 24 hours), the apoptosis was detected by Annexin V-FITC PI double staining method and proteins were detected by Western blot as described in Example 1 as well as the cell viability was detected by CCK-8 method.

[1] = tested on: Akt/FoxO3a/Bim signaling pathway in CCRF-CEM cells; assay: Western blot of Akt/FoxO3a/Bim signaling pathway proteins in CCRF-CEM cells; settings: compared to the only dexamethasone group; FIG. 2B, 2H, 2I
Description: as §1
Protein detection by Western blot: in the examples of the present invention, Akt antibody (rabbit derived), phosphorylated Akt antibody (rabbit derived), FoxO3a antibody (rabbit derived), phosphorylated FoxO3a antibody (rabbit derived) and GAPDH antibody (rabbit derived) and secondary antibodies were all purchased from CST company. The cells were collected in a centrifuge tube and centrifuged at 1000 rpm, the supernatant was discarded and the cells were washed twice with PBS pre-cold at 4° C.; cell lysis buffer (150 mM NaCl, 1% NP-40, 0.1% SDS, 2 μg/ml Aprotinin, 2 μg/ml Leupeptin, 1 mM PMSF, 1.5 mM EDTA, 1 mM sodium vanadate) was added and the cells were lysed on ice for 40 minutes, the cell lysate was centrifuged at 20000 rpm, 4° C. for 15 minutes, and the supernatant was collected; a protein loading buffer for sodium dodecyl sulfate polyacrylamide (SDS-PAGE) gel electrophoresis (1.25 mL 1MTris-HCl (pH6.8), 0.5 g SDS, 25 mg BPB, 2.5 mL glycerol, 5 mL deionized water) was added, followed by boiling for 5 minutes to denature proteins; the loading buffer containing denatured proteins was applied to 10% SDS-PAGE for electrophoresis at 120 V, and then transferred to a PVDF membrane (Sangon Biotech (Shanghai) Co., Ltd.) at 130 V for 1.5 hours; after the membrane transfer was completed, the PVDF membrane was immediately rinsed with a Western washing solution (150 mmol/L NaCl, 50 mmol/L Tris-HCl (pH 7.5)) for 1-2 minutes; added with 5% non-fat milk powder (Shanghai Biotechnology Co., Ltd.), agitated gently and then blocked at room temperature for 60 minutes; a primary antibody diluted appropriately with 5% non-fat milk powder was added, and incubated overnight at room temperature with gentle agitating; the primary antibody was recovered and the membrane was washed three times with the washing solution for 5-10 minutes each; a horseradish peroxidase-labeled secondary antibody diluted appropriately with the Western washing solution was added, and incubated at room temperature for 1 hour with gentle agitating; the secondary antibody was recovered and the membrane was washed three times with the Western washing solution for 5-10 minutes each. An appropriate amount of developing solution (DAB 4 mg, 30% hydrogen peroxide 15 μL, 0.01 M Tris-Cl (pH 7.5) 5 mL) was dropped on the PVDF membrane, the image was detected using a bioluminescence image colorimeter and a gel imaging system (Thermo company), and the quantitative analysis of bands was performed using Image Lab software.
as §3
Methods: CCRF-CEM cells were cultured in RPMI 1640 complete medium (Gibco company) containing 10% fetal bovine serum (FBS, Gibco company) in an incubator (Thermo company) at 5% CO2 and 37° C. until reaching logarithmic growth phase, then DMSO, dexamethasone and different inhibitors (DMSO: 0.1%, dexamethasone: 0.1 μM, inhibitors: 0.8 μM) were added to the culture medium, and further cultured (for addition of dexamethasone or DMSO, for 48 hours, and for addition of inhibitors, for 24 hours), and the proteins were detected by Western blot, as described in Example 1.

Jurkat cells = assay: Apoptosis by Annexin V-FITC PI double staining, Jurkat; settings: compared to the dexamethasone group; FIG. 5H
Description: as §2, §3, §4
The transfected cells were selected and passaged for 3 to 5 passages after resuscitation, with Interferin™ as transfection reagent, and the transfection procedure was performed in accordance with the instruction of the transfection reagent. In short, the cells of logarithmic growth phase were plated at 2×10^5/well, the cells were replaced with fresh complete medium (free of antibiotics) during transfection, siRNA was diluted with Opti-MEM and added with an appropriate amount of […]in™ and mixed, incubated at room temperature for 10 minutes prior to being added dropwise to the cells, and the cells were harvested at appropriate time. The cells were transfected with green fluorescein-labeled siRNA (FAM-siRNA) (siRNA at a final concentration of 20 μM, 1.25 μl/well), and the transfection efficiency was observed using a fluorescence microscope 24 hours later. The dexamethasone group was added 24 hours after transfection, followed by culture for further 24 hours, and then the cells were collected for observation; and the equal amount of anhydrous ethanol was added to the control group.

| Compound | apoptosis of CCRF-CEM cells induced by dexamethasone, inhibitor plus dexamethasone (CCRF-CEM cells) | expression of phosphorylated FoxO3a, inhibitor plus dexamethasone [1] | apoptosis of siRNA-transfected Jurkat cells induced by dexamethasone (Jurkat cells) |
| --- | --- | --- | --- |
| C[C@H](NC(=O)Cc1cc(F)cc(F)c1)C(=O)N[C@H](C(=O)OC(C)(C)C)c1ccccc1 [dapt] | significantly increased | significantly reduced | – |
| Akt2 siRNA: siRNA, SEQ ID NO: 7 GGUUCUUCCUCAGCAUCAATT and SEQ ID NO: 8 UUGAUGCUGAGGAAGAACCTT (chain 1 GGUUCUUCCUCAGCAUCAANN; chain 2 UUGAUGCUGAGGAAGAACCNN; listed as RNA, chemistry not given here) | – | – | significantly increased |
| Akt1 siRNA: siRNA, SEQ ID NO: 5 GGCCCAACACCUUCAUCAUTT and SEQ ID NO: 6 AUGAUGAAGGUGUUGGGCCTT (chain 1 GGCCCAACACCUUCAUCAUNN; chain 2 AUGAUGAAGGUGUUGGGCCNN; listed as RNA, chemistry not given here) | – | – | not increased |
